Measured values published in publication PMC3767473 (Angewandte Chemie (International ed. in English), 2013).
Numbered stars: 1 amine (or outer) side, 2 acyl side, 3 side chain; on linkers, the order of the positions; unused ones are H or OH. Bridge positions count the residues as written; N and C are the ends. Square brackets hold non-standard residues; d marks the D form. Side chains are listed from the residue outwards. Peptide text beside a SMILES is read from it. * marks the point of attachment. X1 = O=C([C@H](Cc1ccc(-n2nnc3c2-c2ccccc2CN([*:3])c2ccccc2-3)cc1)N[*:1])[*:2]; X2 = Cc1c(CC(=O)*)c(=O)oc2cc(N)ccc12; βAla = NCCC(=O)O

Key:
[1] = system: porcine pancreatic trypsin; assay: Binding to commercial porcine pancreatic trypsin; settings: Fig. S8
[2] = cited from earlier work

| Compound | binding to porcine pancreatic trypsin ([1]; commercial trypsin) | effect of the fluorophore in loop 2 on biological activity ([1]; trypsin binding) | oral uterotonic activity [2] |
| --- | --- | --- | --- |
| CC[C@H](C)[C@@H]1NC(=O)[C@@H]2CSSC[C@@H]3NC(=O)[C@H](C(C)C)NC(=O)CNC(=O)CNC(=O)[C@H](CC(=O)O)NC(=O)[C@H](CO)NC(=O)CNC(=O)[C@H](CO)NC(=O)CNC(=O)[C@@H]4CSSC[C@H](NC(=O)[C@H](CC(=O)O)NC(=O)[C@H](CO)NC(=O)[C@H](Cc5ccc(-n6nnc7c6-c6ccccc6CN(C(=O)CCNC(=O)Cc6c(C)c8ccc(N)cc8oc6=O)c6ccccc6-7)cc5)NC(=O)[C@H](CCCNC(=N)N)NC(=O)[C@H](CCCNC(=N)N)NC(=O)[C@H](CSSC[C@H](NC1=O)C(=O)N[C@@H](CCCNC(=N)N)C(=O)NCC(=O)N[C@@H](CC(N)=O)C(=O)NCC(=O)N[C@@H](Cc1ccc(O)cc1)C(=O)N4)NC(=O)[C@H](CCCNC(=N)N)NC(=O)[C@H](CCC(N)=O)NC(=O)[C@H](CC(C)C)NC(=O)[C@H]([C@@H](C)CC)NC(=O)[C@H](CCCCN)NC(=O)[C@@H]1CCCN1C3=O)C(=O)N1CCC[C@H]1C(=O)NCC(=O)N[C@@H](C)C(=O)N2 [AMCA-labeled MCoTI-AziF] (cyclo(ACICRGNGYCGSGSDGGVCPKILQRCRR[X1]([βAla-X2])SDCPG); disulfide 2-19, 4-26, 10-32) | able to bind commercial porcine pancreatic trypsin efficiently | did not have a detrimental effect on its biological activity | – |
| kalata B1: the first cyclotide to be discovered (GLPVCGETCVGGTCNTPGCTCSWPVCTRN; Kalata-B1; UniProt P56254 89-117, looked up) | – | – | orally effective uterotonic |
